Experimental data as given in US20130039930A1, “BIOMARKER FOR SENSITIVITY TO THERAPY WITH A NOTCH INHIBITOR” (priority 2011, published 2013).

Experiments:
[1] = system: metastatic colorectal cancer; details: cited from earlier work
[2] = system: cleaved/activated Notch intracellular domain (NICD); experiment: NICD staining in Dll4-Fc- or DAPT-treated HDMECs (LECs and BECs); assay type: cell-based, human; details: 10 μg/mL, 24 hours
Description: FIG. 1. Expression and function of Dll4-Fc. (A) Map of the AAV9-Dll4-Fc vector. (B) Structure of the Dll4-Fc as a dimeric fusion protein of the ECD of mouse Dll4 and Fc region of human immunoglobulin (hFc). (C) Dll4-Fc in the supernatants of AAV9-transfected 293T cells was analyzed by metabolic labeling, immunoprecipitation with Protein A Sepharose and autoradiography after collecting with protein Sepharose from the supernatant of the virus-infected cells. (D) Human dermal microvascular endothelial cells (HDMECs) on glass coverslips stained with Dll4-Fc (red) on ice. After fixation with paraformaldehyde (PFA) and permeabilzation, the cells were stained for Prox-1 (Green) and Hoechst (Blue). Human immunoglobulin G1 (hIgG) was used as a negative control (Red). Note Dll4-Fc in both the Prox-1-positive lymphatic vascular endothelial cells (LECs) and Prox-1-negative cells. (E) Effect of Dll4-Fc on Notch downstream gene expression. HDMECs were treated with 10 μg/mL Dll4-Fc or 10 μg/mL DAPT for 24 hours, and the expression of Hes-1, Hey-2 and NRARP were quantified by qPCR and normalized for the expression of β-actin. The experiment was repeated 4 times. (F) The cells used in (E) were stained for NICD lymphatic vascular endothelial cells (LECs). Prox-1-positive LECs are indicated by arrowheads. (G) Quantification of NICD fluorescence intensity. **:p<0.01. *: p<0.05. […]

[3] = system: SK-MeI-103 tumor blood vessels; experiment: Endomucin and VEGFR-3 staining of SK-MeI-103 tumors; assay type: in vivo, mouse; details: SK-MeI-103 tumors expressing the VEGF-C/D trap
From the text: FIG. 6. Dll4-Fc suppresses growth of tumors expressing high levels of endogenous VEGF-C. (A) VEGF-C mRNA levels in the indicated tumor cell lines analyzed by qRT-PCR. (B) Effects of Dll4-Fc on the proliferation LNM35 and SK-MeI-103 cells in culture. […] (C) The effect of Dll4-Fc on the growth of LNM35 and SK-MeI-103 tumors. (D) Endomucin staining of LNM35 and SK-MeI-103 tumors. More sprouts were associated with Dll4-Fc treatment (arrows). (E) Quantification of endomucin positive areas in LNM35 and SK-MeI-103 tumors from (D). **:p<0.01. Scale bar 50 μm.
(§1) FIG. 7. Neutralization of VEGF-C/D attenuates the inhibition by Dll4-Fc. (A) The mice were injected by AAV9-Dll4-Fc or AAV9-HSA, followed by subcutaneous implantation of 5×10^6 VEGFR-3(D1-3)-Fc expressing or control retrovirus-transfected SK-MeI-103 cells. *: p<0.01, **: p<0.05. (B) Endomucin staining of the tumors. (C) Quantification of endomucin positive area. […] Scale bar 100 μm.
FIG. 9. Dll4-Fc induced hypersprouting and VEGFR-3 expression in tumors. (A) High magnification fluorescent imaging of blood vessels in the SW480 tumors. Endomucin staining. […] (C) Quantification of VEGFR-3 staining intensity in the blood vessels. **: p<0.01. […]
The immunofluorescent images were captured with a Zeiss digital Axiocam camera connected to a Zeiss AxioPlan 2 microscope. […] The image quantification was carried out using ImageJ software (NIH, Bethesda, Md.).

[4] = system: VEGF-C-induced BaF3/VEGFR-3 cell proliferation; experiment: BaF3/VEGFR-3 assay; assay type: cell-based, mouse; details: supernatant from SK-VEGFR-3(D1-3)-Fc cells
Description: The BaF3/VEGFR-3 cells are derived from the interleukin-3 (IL-3) dependent mouse pro-B cell line, BaF3 (Bernardi et al., 1987). The cells express a chimeric receptor consisting of the ECD of human VEGFR-3 fused in-frame to the transmembrane and intracellular domain of mouse erythropoietin receptor (Achen et al., 2000). In IL-3 deficient cell media, the cells can be rescued by the addition of VEGF-C. The serial dilutions of supernatants (50 μl each), as well as positive and negative controls were applied in the wells of 96-well plates in quadruplicate. Subsequently, 20,000 BaF3/VEGFR-3 cells in 50 μl were added and the cells incubated at 37° C. for 48 hours. MTT substrate was added and the cells incubated at 37° C. for 2 hours. Lysis buffer (10% SDS, 10 mM HCl) was added and the plates incubated at 37° C. overnight for colour development. Quantification was done by absorbance at 540 nm.

SK-MeI-103 tumors = experiment: SK-MeI-103 tumor xenograft growth (control or VEGFR-3(D1-3)-Fc expressing); assay type: in vivo, mouse; details: SK-MeI-103, AAV9-HSA treated mice
Description: as §1
Six- to eight-week old female nu/nu BALB/c mice were purchased from Harlan Laboratories (Venray, The Netherlands). The National Board for Animal Experiments at the Provincial State Office of Southern Finland approved all the experiments, which were performed in accordance with Finnish legislation regarding the humane care and use of laboratory animals. […] Once the tumors became visible during the first few days, the size of the tumor was measured by a digital caliper every second day. The tumor volume was calculated using the formula: (length)×(width)×(depth)×0.52.
The SK-Mel-103 cells were transfected by an empty retrovirus (control) or by a retrovirus encoding VEGFR-3(D1-3)-Fc and then subcutaneously inoculated into nu/nu mice treated with the AAV9-HSA or the AAV9-Dll4-Fc as described above. […] This difference was statistically significant when measured 10, 12 and 14 days after tumor inoculation. […]

BECs on LECs islands = experiment: Sprout-like structures in 2D culture of LECs and BECs; assay type: cell-based, human; details: 1:1 LECs and BECs, 48 hours, 200 ng/ml VEGF-C with or without 10 μg/ml Dll4-Fc
Description: 1:1 Mixtures of BECs and LECs were grown on cover slips for 48 hours without VEGF-C to allow them to make LECs islands surrounded by BECs. The cells were then incubated for a further 48 hours with 200 ng/ml VEGF-C (produced by Dr Michael Jeltsch, University of Helsinki) with or without 10 μg/ml recombinant human Dll4-Fc protein (R&D Systems). After fixation with 1% PFA, the samples were immunostained for PECAM-1, a blood vascular endothelial marker, and podoplanin, a lymphatic endothelial marker, to identify BECs and LECs. The number of sprout-like projections of BECs on LECs islands was then counted under a fluorescence microscope.

[5] = newly diagnosed, Mayo Clinic or Roswell Park regimen
[6] = subjects progressed following 5-FU therapy

Molecule: 5-FU/leucovorin
- median survival [1, 5]: 12-14 months
- median time to disease progression [1, 5]: 4-5 months

Molecule: C[C@H](NC(=O)Cc1cc(F)cc(F)c1)C(=O)N[C@H](C(=O)OC(C)(C)C)c1ccccc1 [DAPT, N—[N-(3,5-difluorophenacetyl)-1-alanyl]-S-phenyl-glycine t-butyl ester]
- intensity of NICD [2]: decreased in both LECs and BECs

Molecule: CCc1c2c(nc3ccc(OC(=O)N4CCC(N5CCCCC5)CC4)cc13)-c1cc3c(c(=O)n1C2)COC(=O)[C@]3(O)CC [irinotecan]
- prolongation of survival versus best supportive care [1, 6]: 2.8 month
- prolongation of survival versus infusional 5-FU [1, 6]: 2.2 month

B1: VEGFR-3(D1-3)-Fc: fusion protein of the immunoglobulin-like domains 1-3 of the extracellular part of human VEGFR-3 and the Fc part of human immunoglobulin G1 (protein)
chain: YSMTPPTLNITEESHVIDTGDSLSISCRGQHPLEWAWPGAQEAPATGDKDSEDTGVVRDCEGTDARPYCKVLLLHEVHANDTGSYVCYYKYIKARIEGTTAASSYVFVRDFEQPFINKPDTLLVNRKDAMWVPCLVSIPGLNVTLRSQSSVLWPDGQEVVWDDRRGMLVSTPLLHDALYLQCETTWGDQDFLSNPFLVHITGNELYDIQLLPRKSLELLVGEKLVLNCTVWAEFNSGVTFDWDYPGKQAERGKWVPERRSQQTHTELSSILTIHNVSQHDLGSYVCKANNGIQRFRESTEVIVHE
modifications: left off: a dimerising Fc or GST
notes: fusion protein of the immunoglobulin-like domains 1-3 of the extracellular part of human VEGFR-3 and the Fc part of human immunoglobulin G1
- endothelial proliferation / vessel density in tumors [3]: downregulated endothelial proliferation
- BaF3/VEGFR-3 cell proliferation induced by VEGF-C [4]: suppresses
- growth rates of VEGFR-3(D1-3)-Fc versus empty retrovirus tumors (SK-MeI-103 tumors): No difference in growth rates

B2: VEGF-C: Vascular endothelial growth factor-C protein added to endothelial cell cultures (protein)
chain: AHYNTEILKSIDNEWRKTQCMPREVCIDVGKEFGVATNTFFKPPCVSVYRCGGCCNSEGLQCMNTSTSYLSKTLFEITVPLSQGPKPVTISFANHTSCRCMSKLDVYRQVHSIIRR
- frequency of sprout-like structures of BECs over LECs islands (BECs on LECs islands): tended to increase the sprout-like structure, but the difference was not statistically significant
